Laboratory results as given in publication PMC10005104 (Molecules, 2023).
Several values for one entry are separate records, joined by “and”; a condition that tells them apart may be missing. Identical values can stand only once. Counter-ions that a name gives are not always drawn. Like-named read-outs stand apart in the source and are kept apart here. Marks after values point to notes of the source that are not given here.

Legend:
hMAO B = target: T1, hMAO B (Homo sapiens, UniProt P27338); assay: fluorometric Amplex red MAO assay; type: biochemical; conditions: read-out: hMAO B % inh
T1 construct: purchased Sigma-Aldrich (Steinheim, Germany)
T1 sequence (P27338 1-520): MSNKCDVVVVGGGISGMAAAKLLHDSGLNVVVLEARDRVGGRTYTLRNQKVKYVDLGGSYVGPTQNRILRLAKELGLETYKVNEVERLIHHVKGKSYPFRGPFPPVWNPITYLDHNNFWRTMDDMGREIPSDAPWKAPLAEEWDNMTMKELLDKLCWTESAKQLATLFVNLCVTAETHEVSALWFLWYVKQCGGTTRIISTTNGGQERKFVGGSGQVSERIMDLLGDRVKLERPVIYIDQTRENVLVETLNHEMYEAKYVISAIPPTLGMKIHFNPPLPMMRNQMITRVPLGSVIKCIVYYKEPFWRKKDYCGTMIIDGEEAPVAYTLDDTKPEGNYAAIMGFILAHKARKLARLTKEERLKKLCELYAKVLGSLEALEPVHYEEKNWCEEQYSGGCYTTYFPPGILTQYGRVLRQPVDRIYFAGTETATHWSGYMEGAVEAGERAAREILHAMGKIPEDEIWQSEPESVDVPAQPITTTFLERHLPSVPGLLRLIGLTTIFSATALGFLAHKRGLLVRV
Method: The ability to inhibit MAO B was estimated by a fluorescence assay, as previously described.
The enzyme was purchased from Sigma-Aldrich (Steinheim, Germany). Screening was carried out at a concentration of 1 micromolar. Inhibitor activity was measured in the presence of p-tyramine.
Data are expressed as mean values of two independent experiments.

[1] = target: T2, AChE from electrophorus electricus (eeAChE) (Electrophorus electricus, UniProt O42275); assay: modified Ellman colorimetric assay, eeAChE; type: biochemical; conditions: for inhibition at 10 µM: read-out: eeAChE % inh; for IC50: three independent experiments, read-out: eeAChE IC50 Mean ± SEM
T2 construct: purchased Sigma-Aldrich (Steinheim, Germany)
Method: All compounds were tested at a concentration of 10 µM in a modified colorimetric method first described by Ellman et al. in the 1960s, using AChE from electrophorus electricus (eeAChE) and BuChE from equine serum (eqBuChE). […]. All results are collected in Table 1. […]. […] No correlation was observed between inhibitory activity and hH3R affinity. The most interesting compounds were among the azepane derivatives. […]. AChE from electrophorus electricus and BuChE from equine serum were purchased from Sigma-Aldrich (Steinheim, Germany). The whole procedure was performed as previously described, using a modified Ellman method in 96-well microplates. Absorbance was measured using an EnSpire multimode microplate reader (PerkinElmer, Waltham, MA, USA) at 412 nm. Initial screening was performed for compounds at a concentration of […]. The percentage of inhibition was calculated by comparison with a blank sample (100% enzyme activity). For compounds showing >70% inhibition of enzyme activity, IC50 values were determined, measuring absorbance at six different inhibitor concentrations. Each concentration was measured in triplicate. IC50 values were calculated using GrapPad Prism 9 software (GraphPad Software, San Diego, CA, USA). Data are expressed as mean ± SEM.

[2] = target: T3, BuChE from equine serum (eqBuChE) (Equus caballus, UniProt P81908); assay: biochemical; conditions: for inhibition at 10 µM: read-out: eqBuChE % inh
T3 construct: BuChE from equine serum (eqBuChE); purchased Sigma-Aldrich (Steinheim, Germany); host or cells: equine serum
Method: AChE from electrophorus electricus and BuChE from equine serum were purchased from Sigma-Aldrich (Steinheim, Germany). The whole procedure was performed as previously described, using a modified Ellman method in 96-well microplates. […] Initial screening was performed for compounds at a concentration of […]. The percentage of inhibition was calculated by comparison with a blank sample (100% enzyme activity). […] Each concentration was measured in triplicate. IC50 values were calculated using GrapPad Prism 9 software (GraphPad Software, San Diego, CA, USA). Data are expressed as mean ± SEM.

human H3 receptor (hH3R) = target: T4, human H3 receptor (hH3R) (Homo sapiens, UniProt Q9Y5N1); assay: [3H]-Nα-methylhistamine radioligand binding assay, HEK293 cell membranes expressing hH3R; conditions: hH3R Ki Mean [CI 95%], HEK293 cells expressing human H3 receptor; at least three independent repetitions
T4 construct: expressed in transfected cells; host or cells: HEK293
Method: The affinity for hH3R was assessed in vitro in radioligand binding assays, using membrane preparations of HEK293 cells stably expressing hH3R, while [^3H]-N^α-methylhistamine was used as a radioligand. The exact procedure was described previously by Kottke et al.. Novel compounds were tested as oxalic acid salts. […]. The activity depended on all three variables, i.e., the presence of an amine group, the chain length (five or six carbons), and the type of substituent in the phenyl ring. With regard to the change in the amine moiety, it can be observed that, regardless of the length of the chain and the type of R substituent, the activity of the derivatives was arranged in the following order: 3-methylpiperidine ≥ piperidine ≥ azepane >> 4-metylpiperidine derivatives. Regarding the length of the carbon chain, compounds bearing the pentylene chain are characterized by a higher binding affinity to the receptor than hexylene derivatives (exception: 10). […]
H3R receptor affinity assays were performed in the radioligand competition assay. Human H3R was stably expressed in HEK293 cells. [^3H]-N^α-Methylhistamine (KD = 3.08 nM) was used as the radioligand. The compounds used in the experiments were dissolved in DMSO. The precise experiment was performed as previously described. Complete curves were obtained for at least seven approximate concentrations, in at least three independent experiments, performed at least in duplicate. Ki values were calculated using the Cheng–Prusoff equation. Results are presented as mean values with confidence intervals (CI) (95%).

SH-SY5Y cells = assay: MTS assay in SH-SY5Y cells; type: cell-based; conditions: for SH-SY5Y Cell Viability (%): at 50 µM, percentage of control (vehicle-treated cells)
Method: (§1) . After the indicated time, the MTS reagent was added directly to the cultured cells for 1 h, and then the absorbance at 490 nm was read. […] The results are presented in Table 2 and Figures S1 and S2 (Supplementary Materials).
(§2) The hepatoma cell line HepG2 (ATCC® HB-8065TM) and SH-SY5Y CRL-2266 neuroblastoma cell line were used to evaluate the toxicity of tested compounds. Tests were conducted as described previously. The CellTiter 96® Aqueous Non-Radioactive Cell Proliferation Assay was purchased from Promega (Madison, WI, USA). […]. […] Each experiment was performed twice, in triplicate.

[3] = MTS assay, statements on both cell lines together; type: cell-based, human; conditions: human, HepG2 hepatoma cells and SH-SY5Y neuroblastoma cells; HepG2 48 h, SH-SY5Y 24 h; up to 50 µM; read-out: cell viability at the highest doses tested
HepG2 cells = assay: MTS assay in HepG2 cells; type: cell-based; conditions: Homo sapiens, HepG2; MTS assay, 48 h of exposure
Method: as §1, §2

MTS assay in HepG2 cells = type: cell-based; conditions: human, HepG2 hepatoma cells; at 50 µM, percentage of control (vehicle-treated cells); read-out: HepG2 Cell Viability (%)
Method: as §1, §2

[4] = target: T2, AChE from electrophorus electricus (eeAChE); conditions: at 10 µM; cited from earlier work
[5] = MTS assay in SH-SY5Y cells; type: cell-based; conditions: human, SH-SY5Y neuroblastoma cells; at 50 µM, percentage of control (vehicle-treated cells); read-out: SH-SY5Y Cell Viability (%)
Method: as §1, §2

hH3R = conditions: cited from earlier work
[6] = at 1 µM, two independent experiments

T4 sequence (Q9Y5N1 whole entry): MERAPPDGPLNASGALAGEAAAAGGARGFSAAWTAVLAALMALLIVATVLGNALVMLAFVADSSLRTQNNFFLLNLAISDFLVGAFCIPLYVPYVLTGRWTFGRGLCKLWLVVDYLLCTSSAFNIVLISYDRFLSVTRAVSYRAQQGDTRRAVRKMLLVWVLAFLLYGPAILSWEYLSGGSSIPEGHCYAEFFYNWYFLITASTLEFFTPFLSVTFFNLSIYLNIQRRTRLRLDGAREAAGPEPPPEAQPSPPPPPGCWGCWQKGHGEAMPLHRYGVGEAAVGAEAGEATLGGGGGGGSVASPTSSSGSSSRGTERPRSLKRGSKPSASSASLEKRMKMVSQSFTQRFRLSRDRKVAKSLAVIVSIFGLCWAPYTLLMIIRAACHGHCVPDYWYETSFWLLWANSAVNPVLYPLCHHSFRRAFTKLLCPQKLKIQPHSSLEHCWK
T2 sequence (O42275 24-633): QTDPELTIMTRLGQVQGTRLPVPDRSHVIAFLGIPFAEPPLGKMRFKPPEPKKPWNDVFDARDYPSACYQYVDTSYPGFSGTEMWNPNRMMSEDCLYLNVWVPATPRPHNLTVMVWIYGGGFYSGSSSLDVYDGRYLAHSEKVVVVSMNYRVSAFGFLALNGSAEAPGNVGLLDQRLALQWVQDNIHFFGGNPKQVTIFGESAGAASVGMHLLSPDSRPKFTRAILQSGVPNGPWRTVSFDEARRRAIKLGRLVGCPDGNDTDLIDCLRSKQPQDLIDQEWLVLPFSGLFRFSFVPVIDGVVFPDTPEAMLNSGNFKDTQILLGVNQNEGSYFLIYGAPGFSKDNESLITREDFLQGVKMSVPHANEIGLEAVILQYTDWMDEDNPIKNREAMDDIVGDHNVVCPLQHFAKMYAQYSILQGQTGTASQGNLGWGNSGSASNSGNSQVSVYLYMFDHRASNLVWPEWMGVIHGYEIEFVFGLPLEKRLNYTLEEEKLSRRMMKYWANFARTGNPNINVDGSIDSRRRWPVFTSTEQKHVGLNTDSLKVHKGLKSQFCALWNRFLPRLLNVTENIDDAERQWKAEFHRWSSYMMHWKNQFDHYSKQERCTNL
T3 sequence (P81908 whole entry): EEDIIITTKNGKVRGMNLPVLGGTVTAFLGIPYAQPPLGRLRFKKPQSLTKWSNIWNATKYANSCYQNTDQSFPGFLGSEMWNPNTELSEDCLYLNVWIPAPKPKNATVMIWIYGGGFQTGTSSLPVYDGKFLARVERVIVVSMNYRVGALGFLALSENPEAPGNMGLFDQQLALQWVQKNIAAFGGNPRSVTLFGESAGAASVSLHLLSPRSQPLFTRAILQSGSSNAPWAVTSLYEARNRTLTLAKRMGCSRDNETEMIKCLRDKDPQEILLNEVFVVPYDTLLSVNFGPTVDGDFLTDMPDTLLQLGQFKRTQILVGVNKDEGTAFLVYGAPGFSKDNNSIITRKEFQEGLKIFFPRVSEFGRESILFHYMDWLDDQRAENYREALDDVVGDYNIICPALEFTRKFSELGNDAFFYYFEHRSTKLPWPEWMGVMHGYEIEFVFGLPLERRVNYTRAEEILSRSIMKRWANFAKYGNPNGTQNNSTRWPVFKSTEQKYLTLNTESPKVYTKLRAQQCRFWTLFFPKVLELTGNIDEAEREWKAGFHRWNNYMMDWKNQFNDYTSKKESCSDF

SMILES | inhibition at 1 µM (hMAO B; [6]) [%] | inhibition at 10 µM [1] [%] | inhibition at 10 µM [2] [%] | Ki (human H3 receptor (hH3R)) | IC50 [1] [nM] | viability at 50 µM [3] [%] | IC50 (HepG2 cells) [nM] | viability at 48 h, 50 µM (MTS assay in HepG2 cells) [%] | also measured
CC(=O)c1ccc(OCCCCCN2CCCCC2)cc1 [Compound 2, 1-(4-((5-(Piperidin-1-yl)pentyl)oxy)phenyl)ethan-1-one hydrogen oxalate] | 2 | 45 | 25 | < 50 nM and 34 nM |  |  |  |  | 
C#CCN[C@@H]1CCc2ccccc21 [rasagiline, reference compound] |  |  |  |  |  |  |  |  | inhibition at 1 µM (hMAO B): 100%
CC(=O)c1ccc(OCCCCCCN2CCCC(C)C2)cc1.O=C(O)C(=O)O (stereo not shown) [Compound 7, 1-(4-((6-(3-Methylpiperidin-1-yl)hexyl)oxy)phenyl)ethan-1-one hydrogen oxalate] | 0 |  | 18 | 72 nM | 1750 ± 50 | > 50 | 148000 | 72.4 ± 4.54 | SH-SY5Y Cell Viability (%) (SH-SY5Y cells): No toxic effect
CCC(=O)c1ccc(OCCCCCN2CCCCC2)cc1 [Compound 4, 1-(4-((5-(Piperidin-1-yl)pentyl)oxy)phenyl)propan-1-one hydrogen oxalate] | 16 | 49 | 32 | < 50 nM and 24 nM |  |  |  |  | 
CC(=O)c1ccc(OCCCCCN2CCCCCC2)cc1 [Compound 14, 1-(4-((5-(Azepan-1-yl)pentyl)oxy)phenyl)ethan-1-one hydrogen oxalate] | 37 | 63 | 63 | 52 nM |  |  |  |  | 
Clc1ccc(CCCOCCCN2CCCCC2)cc1 [pitolisant] |  |  |  |  |  |  |  |  | eeAChE % inh [4]: (3%) ^g
CCC(=O)c1ccc(OCCCCCCN2CCC(C)CC2)cc1.O=C(O)C(=O)O [Compound 13, 1-(4-((6-(4-Methylpiperidin-1-yl)hexyl)oxy)phenyl)propan-1-one hydrogen oxalate] | 1 |  | 65 | 58 nM | 2560 ± 80 | > 50 | 105000 | 64.7 ± 4.4 | SH-SY5Y Cell Viability (%) (SH-SY5Y cells): No toxic effect
CC(=O)c1ccc(OCCCCCN2CCC(C)CC2)cc1 [Compound 10, 1-(4-((5-(4-Methylpiperidin-1-yl)pentyl)oxy)phenyl)ethan-1-one hydrogen oxalate] | 0 | 60 | 43 | 120 nM |  |  |  |  | 
CC(=O)c1ccc(OCCCCCCN2CCCCC2)cc1 [Compound 3, 1-(4-((6-(Piperidin-1-yl)hexyl)oxy)phenyl)ethan-1-one hydrogen oxalate] | 3 | 67 | 23 | 75 nM |  |  |  |  | 
CC(=O)c1ccc(OCCCCCCN2CCC(C)CC2)cc1.O=C(O)C(=O)O [Compound 11, 1-(4-((6-(4-Methylpiperidin-1-yl)hexyl)oxy)phenyl)ethan-1-one hydrogen oxalate] | 0 |  | 49 | 106 nM | 2650 ± 110 | > 50 | 223000 | 77.5 ± 0.94 | SH-SY5Y Cell Viability (%) (SH-SY5Y cells): No toxic effect
CC(=O)c1ccc(OCCCCCN2CCCC(C)C2)cc1 (stereo not shown) [Compound 6, 1-(4-((5-(3-Methylpiperidin-1-yl)pentyl)oxy)phenyl)ethan-1-one hydrogen oxalate] | 10 |  | 14 | < 50 nM and 26 nM | 3060 ± 100 | > 50 | 120000 | 74.3 ± 5.58 | viability at 24 h, 50 µM [5]: 86.2 ± 2.2%; IC50 (SH-SY5Y cells; Homo sapiens, SH-SY5Y, MTS assay, 24 h of exposure): 149000 nM
CCC(=O)c1ccc(OCCCCCCN2CCCCC2)cc1.O=C(O)C(=O)O [Compound 5, 1-(4-((6-(Piperidin-1-yl)hexyl)oxy)phenyl)propan-1-one hydrogen oxalate] | 22 |  |  | < 50 nM and 41 nM | 4790 ± 190 | > 50 | 158000 | 69.5 ± 2.14 | SH-SY5Y Cell Viability (%) (SH-SY5Y cells): No toxic effect; IC50 ([2]; three independent experiments, read-out: eqBuChE IC50 Mean ± SEM): 1350 ± 40 nM
CC(=O)c1ccc(OCCCCCCN2CCCCCC2)cc1 [Compound 15, 1-(4-((6-(Azepan-1-yl)hexyl)oxy)phenyl)ethan-1-one hydrogen oxalate] | 6 | 67 | 68 | 79 nM |  |  |  |  | 
O=c1c2ccccc2oc2ccc(OCCCCCN3CCCCCC3)cc12 [IV] |  |  |  |  |  |  |  |  | Ki (hH3R): 170 nM
Cc1ccc2oc(-c3ccc(OCCCCCCN4CCCCCC4)cc3)cc(=O)c2c1 [III] |  |  |  |  |  |  |  |  | Ki (hH3R): 160 nM
CCC(=O)c1ccc(OCCCCCCN2CCCC(C)C2)cc1 (stereo not shown) [Compound 9, 1-(4-((6-(3-Methylpiperidin-1-yl)hexyl)oxy)phenyl)propan-1-one hydrogen oxalate] | 12 | 68 | 66 | < 50 nM and 38 nM |  |  |  |  | 
